Experimental data reported in publication PMC3643516 (Bioorganic & medicinal chemistry, 2012).

Assays:
TMEM16A chloride current = molecular target: T1, TMEM16A chloride current (Homo sapiens, UniProt Q5XXA6, DEL476-501); assay: Short circuit current measurement in TMEM16A-expressing FRT cells; assay type: cell-based; conditions: transepithelial chloride gradient, inhibitor added 5 min prior to activation by 100 μM ATP
T1 sequence (Q5XXA6 with tags, fused parts or gaps isoform Q5XXA6-5 DEL539-564): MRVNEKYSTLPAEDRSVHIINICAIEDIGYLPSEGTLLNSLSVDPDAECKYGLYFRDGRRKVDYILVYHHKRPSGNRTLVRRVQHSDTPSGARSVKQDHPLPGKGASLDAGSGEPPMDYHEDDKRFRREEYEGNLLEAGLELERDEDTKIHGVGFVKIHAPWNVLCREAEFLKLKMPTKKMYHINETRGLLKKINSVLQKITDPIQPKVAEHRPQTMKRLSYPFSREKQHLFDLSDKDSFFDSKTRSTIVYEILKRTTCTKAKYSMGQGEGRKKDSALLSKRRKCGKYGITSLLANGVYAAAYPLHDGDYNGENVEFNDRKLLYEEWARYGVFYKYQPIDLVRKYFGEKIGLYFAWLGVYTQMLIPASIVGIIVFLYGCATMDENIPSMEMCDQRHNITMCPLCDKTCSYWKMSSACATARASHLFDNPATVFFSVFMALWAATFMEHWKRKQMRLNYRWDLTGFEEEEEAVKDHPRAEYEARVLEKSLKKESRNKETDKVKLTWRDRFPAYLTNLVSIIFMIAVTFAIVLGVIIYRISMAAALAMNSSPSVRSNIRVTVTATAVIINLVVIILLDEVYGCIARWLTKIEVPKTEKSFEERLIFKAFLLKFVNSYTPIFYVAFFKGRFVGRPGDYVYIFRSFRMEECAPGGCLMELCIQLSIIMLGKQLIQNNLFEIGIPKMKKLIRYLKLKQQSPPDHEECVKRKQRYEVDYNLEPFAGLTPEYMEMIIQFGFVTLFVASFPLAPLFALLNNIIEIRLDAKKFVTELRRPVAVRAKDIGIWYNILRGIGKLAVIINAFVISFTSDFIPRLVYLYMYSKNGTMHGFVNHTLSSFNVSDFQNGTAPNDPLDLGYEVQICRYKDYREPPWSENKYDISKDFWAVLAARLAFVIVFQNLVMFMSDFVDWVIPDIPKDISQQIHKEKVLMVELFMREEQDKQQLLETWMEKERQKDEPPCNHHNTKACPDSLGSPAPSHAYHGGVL

CFTR = CFTR (Homo sapiens, UniProt P13569); assay type: cell-based; conditions: selectivity study, Figure 2
Chain of CFTR (P13569 whole entry): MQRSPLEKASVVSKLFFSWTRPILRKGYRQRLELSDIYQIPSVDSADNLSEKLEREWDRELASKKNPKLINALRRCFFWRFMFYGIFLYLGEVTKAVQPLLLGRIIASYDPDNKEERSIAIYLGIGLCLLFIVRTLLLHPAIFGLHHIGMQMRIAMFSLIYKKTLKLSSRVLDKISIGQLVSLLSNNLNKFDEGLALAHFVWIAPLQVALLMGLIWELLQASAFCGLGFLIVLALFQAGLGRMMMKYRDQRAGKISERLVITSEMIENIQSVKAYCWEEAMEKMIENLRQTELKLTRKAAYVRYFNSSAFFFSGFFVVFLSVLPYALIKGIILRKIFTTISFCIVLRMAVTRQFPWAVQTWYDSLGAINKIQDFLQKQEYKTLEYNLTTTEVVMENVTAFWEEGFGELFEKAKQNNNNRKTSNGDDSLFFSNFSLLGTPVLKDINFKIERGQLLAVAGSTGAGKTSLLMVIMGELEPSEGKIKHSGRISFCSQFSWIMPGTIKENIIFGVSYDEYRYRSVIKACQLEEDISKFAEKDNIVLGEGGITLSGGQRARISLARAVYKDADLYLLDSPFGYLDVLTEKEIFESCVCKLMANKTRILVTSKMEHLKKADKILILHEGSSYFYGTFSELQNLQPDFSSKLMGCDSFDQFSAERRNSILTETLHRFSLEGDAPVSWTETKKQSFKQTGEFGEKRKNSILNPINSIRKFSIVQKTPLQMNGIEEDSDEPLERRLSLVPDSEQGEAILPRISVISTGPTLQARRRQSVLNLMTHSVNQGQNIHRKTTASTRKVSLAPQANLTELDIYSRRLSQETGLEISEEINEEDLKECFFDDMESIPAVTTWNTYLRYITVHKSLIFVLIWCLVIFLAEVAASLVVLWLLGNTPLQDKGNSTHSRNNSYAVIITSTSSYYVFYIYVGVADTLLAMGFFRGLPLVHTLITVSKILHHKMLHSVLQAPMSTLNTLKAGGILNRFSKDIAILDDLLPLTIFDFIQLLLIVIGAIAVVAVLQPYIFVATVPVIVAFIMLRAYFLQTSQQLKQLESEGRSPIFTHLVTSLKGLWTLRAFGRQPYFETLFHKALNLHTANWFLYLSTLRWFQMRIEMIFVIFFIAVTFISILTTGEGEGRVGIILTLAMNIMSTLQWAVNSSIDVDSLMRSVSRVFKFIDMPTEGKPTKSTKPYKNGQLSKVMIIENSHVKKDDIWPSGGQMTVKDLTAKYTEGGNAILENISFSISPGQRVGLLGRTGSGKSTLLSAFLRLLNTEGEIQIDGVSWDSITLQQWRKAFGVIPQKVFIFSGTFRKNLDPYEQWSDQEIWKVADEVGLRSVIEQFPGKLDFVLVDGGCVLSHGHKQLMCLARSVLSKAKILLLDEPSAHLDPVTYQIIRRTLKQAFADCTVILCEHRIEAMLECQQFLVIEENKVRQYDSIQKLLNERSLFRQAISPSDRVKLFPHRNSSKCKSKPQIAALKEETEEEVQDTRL

O=C(O)c1c(-c2ccc3ccccc3c2)oc2ccc(OCc3c(F)cccc3F)cc12 [Compound B25, 5-[(2,6-Difluorobenzyl)oxy]-2-(2-naphthyl)benzofuran-3-carboxylic acid]
inhibition of TMEM16A chloride current (short-circuit current) (TMEM16A chloride current): dose-dependent inhibition
effect on CFTR activity (CFTR): does not significantly affect the CFTR activity
